What was measured:
[1] = Binding affinity to HT3AT sequence of bulge DNA by fluorescence quenching
[2] = Binding affinity to DA12:BA14 sequence of bulge DNA by fluorescence quenching
[3] = Binding affinity to HT3AGTT sequence of bulge DNA by fluorescence quenching
[4] = Binding affinity to HT3AGT sequence of bulge DNA by fluorescence quenching
[5] = Binding affinity to HT3AGCTT sequence of bulge DNA by fluorescence quenching
[6] = Binding affinity to HT3AGTA sequence of bulge DNA by fluorescence quenching
HT4AGTT bulged DNA = experiment: Binding affinity to HT4AGTT sequence of bulge DNA by fluorescence quenching
Nucleic Acid = experiment: Binding affinity to DA12:DAc12 oligomer sequence of bulge DNA by fluorescence quenching; type: nucleic-acid assay

Kd [1] [µM] | Kd [2] [µM] | Kd [3] [µM] | Kd [4] [µM] | Kd [5] [µM] | Kd [6] [µM] | Kd (HT4AGTT bulged DNA) [µM] | Kd (Nucleic Acid) [µM] | SMILES
8.2 | 0.4 | 0.2 | 14 | 1.8 | 0.39 | 0.19 |  | CN[C@H]1[C@H](O[C@H]2c3cc4ccccc4cc3[C@H]3[C@@H]2C=C[C@]32C(=O)C=Cc3ccc(OC)cc32)O[C@H](C)[C@H](O)[C@@H]1O
9.2 | 0.43 | 1.6 | 5.5 | 1.95 | 0.44 | 1.5 |  | CN[C@H]1[C@H](O[C@@H]2c3cc4ccccc4cc3[C@@H]3[C@H]2C=C[C@@]32C(=O)C=Cc3ccc(OC)cc32)O[C@H](C)[C@H](O)[C@@H]1O
10 | 2.18 | 0.033 | 20.6 | 0.71 | 12.5 | 0.026 | 307 | CN[C@H]1[C@H](O[C@@H]2c3cc4c(cc3[C@@H]3[C@H]2OC(=O)[C@@]32C(=O)C=Cc3c(C)cc(OC)cc32)[C@@](O)([C@H]2COC(=O)O2)C=C4)O[C@@H](C)[C@H](O)[C@@H]1O
13 | 0.8 | 0.13 | 4.1 | 1.7 | 1.4 | 0.24 |  | CN[C@H]1[C@@H](O[C@@H]2c3cc4ccccc4cc3[C@@H]3[C@H]2C=C[C@@]32C(=O)C=Cc3ccc(OC)cc32)O[C@H](C)[C@H](O)[C@@H]1O
10 | 0.6 | 0.08 | 8.4 | 2.1 | 0.22 | 0.11 |  | CN[C@H]1[C@@H](O[C@H]2c3cc4ccccc4cc3[C@H]3[C@@H]2C=C[C@]32C(=O)C=Cc3ccc(OC)cc32)O[C@H](C)[C@H](O)[C@@H]1O

From ChEMBL document CHEMBL1152786, “Designed DNA probes from the neocarzinostatin family: impact of glycosyl linkage stereochemistry on bulge base binding” (Bioorg Med Chem, 2009)
